# Assays:
# SK3/KCa2.3 channel [1] = biological target: T1, SK3/KCa2.3 channel (Homo sapiens, UniProt Q9UGI6); experiment: Whole-cell patch clamp, apamin-sensitive current in MDA-MB-435s; type: cell-based; design: effect of JPH1701 on the SK3 activity in MDA-MB-435s cells using patch clamp technique; endogenous in cells; host or cells: MDA-MB-435s wild type
# Procedure: FIG. 7: Effects of a 24 hours application of JPH1701 at 1 μM on whole cell current in MDA-MB-435s Wild Type (WT). FIG. 7A) Illustrations of currents recorded on MDA-MD-435s. On the top, current were recorded on MDA-MB-435s in control condition. At the bottom, current were representative of a cell which was treated with JPH1701 1 μM during 24 hours. FIG. 7B) Effects of JPH1701 on apamin-sensitive currents. Cells were incubated with JHP1701 at 1 μM during 24 hours then currents were measured in absence or with apamin, a specific blocker of the SK3/KCa2.3 channel. Histograms show the amplitude of currents inhibited by apamin. After JPH1701 treatment apamin-sensitive current were abolished. […]
# (§1) Briefly, experiments were conducted using Axopatch 200B patch-clamp amplifier (Axon Instrument) and data, digitized with 1322-A Digidata converter (Axon Instrument), were stored on a computer using Clampex of pClamp 9.2 software (Axon Instru-ment). The patch-clamp data was analyzed using both Clampfit 9.2 and Origin 7.0 software (Microcal Inc., Northampton, Mass., USA).
# The pipette solution for the whole-cell recordings contained (in mM): K-glutamate 125, KCl 20, MgCl2 1, Mg-ATP 1, HEPES 10, and pH was adjusted to 7.2 with KOH and various concentrations of CaCl2 and EGTA were added to obtain calculated pCa=7 (0.37 mM CaCl2 and 10 mM EGTA) or pCa=6.4 (0.7 mM CaCl2 and 1 mM EGTA). […]
# MDA-MB-435s (SK3+) = experiment: Cell migration / 2D motility assay (transwell inserts, wound healing); type: cell-based, human
# Description: Alternatively, the cell migration inhibitory activity of a compound of formula (I) may be assessed by performing a Wound Healing assay that is disclosed in the examples herein and for which the one skilled in the art may also refer to the article of Rodriguez et al. (2005, Methods Biol Mol, Vol. 294: 23-29). The wound-healing assay is simple, inexpensive, and one of the earliest developed methods to study directional cell migration in vitro. This method mimics cell migration during wound healing in vivo. The basic steps involve creating a “wound” in a cell monolayer, capturing the images at the beginning and at regular intervals during cell migration to close the wound, and comparing the images to quantify the migration rate of the cells. It is particularly suitable for studies on the effects of cell-matrix and cell-cell interactions on cell migration. Cells are seeded in culture dishes and grown until confluence in DMEM supplemented with 10% foetal calf serum. The monolayer is then scratched with a sterile yellow pipette tip. Then, migration of cells to the cleared area is inspected under a microscope. Pictures are taken directly at the time of scratching and after 24 h, so as to determine the ability of the tested cells to migrate.
# Wound healing assay: Cells were seeded in culture dishes and grown until confluence in DMEM supplemented with 10% foetal calf serum. The monolayer was scratched with a sterile yellow pipette tip. The migration of cells to the cleared area was inspected under a microscope. Pictures were taken directly at the time of scratching and after 24 h.
# At least three independent experiments were each performed in triplicate.
# MDA-MB-435s = experiment: Cytotoxicity / cell viability (MTT, tetrazolium salt reduction)
# SK3/KCa2.3 channel [2] = biological target: T1, SK3/KCa2.3 channel; experiment: Whole-cell patch clamp on HEK293 cells expressing SK3; type: cell-based; design: expressed in transfected cells; host or cells: HEK293, lentiviral transduction, clonal selection
# Procedure: The percentages of inhibition represent the ratio (SK3 current amplitude and chord conductance (in the presence of 10 μM JPH1701)/SK3 current amplitude in control experiments). Black bars show current at 0 mV and grey bars indicate the chord conductance. […] Columns, mean, bars, SEM, (5 cells for racemic mix and 4 cells for + and − forms).
# MDA-MB-435s and HEK293 cells were transduced with lentiviral vector at multiplicities of infection (MOI) of 1 to 3 in the presence of polybrene (4 μg/ml, Sigma).
# Experiments were performed with cells seeded into 35-mm Petri dishes at 3000 cells per cm2. All experiments were performed using the conventional whole-cell recording configuration of the patch-clamp technique as previously described. PCa solution was 7 and 6.4 respectively for MDA-MB-435s and HEK293-SK3/KCa2.3 cells.
# as §1
# The pipette solution for the whole-cell recordings contained (in mM): K-glutamate 125, KCl 20, MgCl2 1, Mg-ATP 1, HEPES 10, and pH was adjusted to 7.2 with KOH and various concentrations of CaCl2 and EGTA were added to obtain calculated pCa=7 (0.37 mM CaCl2 and 10 mM EGTA) or pCa=6.4 (0.7 mM CaCl2 and 1 mM EGTA).
# We next developed HEK cells expressing SK3/KCa2.3 channel in order to test directly analogues on SK3 activity measured using patch-clamp technique (FIG. 8). […] The JPH1701-induced inhibition of SK3 current was analysed at 0 mV and the entire time course of the experiment is depicted in FIG. 8A.
# Current activity has been measured in HEK 293 LvSK3 and in MDA-MB-435s cells. The percentages represent the inhibition of current and of conductance by compounds on SK3 channel in HEK 293 cells.
substance,measurement,setting,value
hexadecyloxy-2-O-methyl-sn-glycerol-lactose [JPH1701],Apamin-sensitive current after treatment,"SK3/KCa2.3 channel [1]; 1 μM for 24 h, FIG. 7B",totally abolished
same,Apamin-sensitive current in MDA-MB-435s,"SK3/KCa2.3 channel [1]; wild-type cells, residual current abolished by apamin",0.071 ± 0.215 pA/pF
same,Effect on motility of cells with shRNA random (SK3+) compared with wild type,"MDA-MB-435s (SK3+); MDA-MB-435s shRD, FIG. 6E",same inhibition effect
same,Concentration from which cell migration is inhibited,"MDA-MB-435s (SK3+); MDA-MB-435s wild type, FIG. 6A",≥ 10 nM
same,Concentration of maximal effect on cell migration,"MDA-MB-435s (SK3+); MDA-MB-435s wild type, FIG. 6A",around 1 μM
same,"Cell Migration inhibition of MDA-MB-435s (SK3+), Inhibitory effect","MDA-MB-435s (SK3+); Table 1, concentration 300 nM",50%
same,Migration (% of inhibition),"MDA-MB-435s (SK3+); Table 2, concentration 300 nM",50%
same,Effect on cell migration,MDA-MB-435s (SK3+); summary of table 2,even more effective
same,Toxicity,"MDA-MB-435s; Table 2, viability of MDA-MB-435s",No at 10 μM
same,Effect on cell viability,"MDA-MB-435s; at 10 nM to 1 μM, FIG. 6B",no effect on cell viability
same,Effect on MDA-MB-435s proliferation,MDA-MB-435s; in vitro,no effect
same,IC50,"MDA-MB-435s; read-out: Cytotoxicity IC50, Table 1",> 10 µM
same,Effect on SK3 current amplitude at 0 mV,"SK3/KCa2.3 channel [2]; 10 μM, FIG. 9B, ranking SK3>SK1",significantly reduced
same,Reduction of the amplitude of the SK3 current at 0 mV,"SK3/KCa2.3 channel [2]; 10 μM, after 120 sec",about 70%
same,Time needed to reduce 50% of the amplitude of the current,"SK3/KCa2.3 channel [2]; 0.3, 1 and 10 μM, whatever the concentration",approximately 40 sec
same,Conductance decreasing,SK3/KCa2.3 channel [2]; HEK 293 LvSK3 cells,66.1 ± 1.5%
same,Inhibition of I at 0 mV,"SK3/KCa2.3 channel [2]; HEK 293 LvSK3 cells, 10 μM stated for JPH1701",70.1 ± 1.4%

# Source: patent US9161944B2, “Method for preventing cancer metastasis” (INSERM (INSTITUT NATIONAL DE LA SANTE ET DE LA SANTE ET DE …, priority 2010, dated 2015)
